Measurements from PMC10924921, “Mi-2β promotes immune evasion in melanoma by activating EZH2 methylation” (Nature Communications, 2024).

What was measured:
Experiment in all cases: biochemical
Set-up in all cases: KINOMEscan active-site competition binding panel (468 kinase assays), per cent of control at 1000 nM
Conditions in all cases: KINOMEscan per cent of control (binding competition); read-out: Percent Control
CSNK1G1 = CSNK1G1 (Homo sapiens, UniProt Q9HCP0)
Description: (§1) Figure S7 / Percent Control

RET(V804M) = RET(V804M) (Homo sapiens, UniProt P07949, V804M)
Description: as §1

GRK2 = GRK2 (Homo sapiens, UniProt P25098)
GRK2, sequence (P25098 whole entry): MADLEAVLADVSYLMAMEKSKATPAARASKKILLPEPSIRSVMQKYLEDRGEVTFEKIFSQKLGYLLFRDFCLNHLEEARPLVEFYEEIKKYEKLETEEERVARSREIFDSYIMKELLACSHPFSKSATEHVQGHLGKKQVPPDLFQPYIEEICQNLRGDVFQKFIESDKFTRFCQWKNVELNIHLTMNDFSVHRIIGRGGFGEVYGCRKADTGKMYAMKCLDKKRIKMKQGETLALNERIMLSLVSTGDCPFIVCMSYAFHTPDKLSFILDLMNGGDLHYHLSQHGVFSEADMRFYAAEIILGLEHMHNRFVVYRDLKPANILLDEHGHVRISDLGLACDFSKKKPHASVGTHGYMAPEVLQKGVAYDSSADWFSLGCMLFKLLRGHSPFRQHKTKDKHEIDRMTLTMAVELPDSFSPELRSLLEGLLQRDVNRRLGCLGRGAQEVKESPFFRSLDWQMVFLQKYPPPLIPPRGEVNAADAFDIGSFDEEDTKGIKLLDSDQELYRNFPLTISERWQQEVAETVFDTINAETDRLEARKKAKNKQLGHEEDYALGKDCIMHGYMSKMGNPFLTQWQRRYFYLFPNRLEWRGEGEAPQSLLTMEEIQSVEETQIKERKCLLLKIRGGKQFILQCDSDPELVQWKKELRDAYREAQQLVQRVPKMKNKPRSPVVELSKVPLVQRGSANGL
Description: as §1

FLT3(K663Q) = FLT3(K663Q) (Homo sapiens, UniProt P36888, K663Q)
Description: as §1

ABL1-nonphosphorylated = biological target: T1, ABL1-nonphosphorylated (Homo sapiens, UniProt P00519)
T1 construct: nonphosphorylated
Description: as §1

MEK3 = biological target: T2, MEK3 (Homo sapiens, UniProt P46734)
T2 construct: gene MAP2K3
Description: as §1

RIOK3 = RIOK3 (Homo sapiens, UniProt O14730)
Description: as §1

[1] = biological target: T3, JAK1(JH2domain-pseudokinase) (Homo sapiens, UniProt P23458)
T3 construct: JH2domain-pseudokinase
T3 sequence (P23458 whole entry): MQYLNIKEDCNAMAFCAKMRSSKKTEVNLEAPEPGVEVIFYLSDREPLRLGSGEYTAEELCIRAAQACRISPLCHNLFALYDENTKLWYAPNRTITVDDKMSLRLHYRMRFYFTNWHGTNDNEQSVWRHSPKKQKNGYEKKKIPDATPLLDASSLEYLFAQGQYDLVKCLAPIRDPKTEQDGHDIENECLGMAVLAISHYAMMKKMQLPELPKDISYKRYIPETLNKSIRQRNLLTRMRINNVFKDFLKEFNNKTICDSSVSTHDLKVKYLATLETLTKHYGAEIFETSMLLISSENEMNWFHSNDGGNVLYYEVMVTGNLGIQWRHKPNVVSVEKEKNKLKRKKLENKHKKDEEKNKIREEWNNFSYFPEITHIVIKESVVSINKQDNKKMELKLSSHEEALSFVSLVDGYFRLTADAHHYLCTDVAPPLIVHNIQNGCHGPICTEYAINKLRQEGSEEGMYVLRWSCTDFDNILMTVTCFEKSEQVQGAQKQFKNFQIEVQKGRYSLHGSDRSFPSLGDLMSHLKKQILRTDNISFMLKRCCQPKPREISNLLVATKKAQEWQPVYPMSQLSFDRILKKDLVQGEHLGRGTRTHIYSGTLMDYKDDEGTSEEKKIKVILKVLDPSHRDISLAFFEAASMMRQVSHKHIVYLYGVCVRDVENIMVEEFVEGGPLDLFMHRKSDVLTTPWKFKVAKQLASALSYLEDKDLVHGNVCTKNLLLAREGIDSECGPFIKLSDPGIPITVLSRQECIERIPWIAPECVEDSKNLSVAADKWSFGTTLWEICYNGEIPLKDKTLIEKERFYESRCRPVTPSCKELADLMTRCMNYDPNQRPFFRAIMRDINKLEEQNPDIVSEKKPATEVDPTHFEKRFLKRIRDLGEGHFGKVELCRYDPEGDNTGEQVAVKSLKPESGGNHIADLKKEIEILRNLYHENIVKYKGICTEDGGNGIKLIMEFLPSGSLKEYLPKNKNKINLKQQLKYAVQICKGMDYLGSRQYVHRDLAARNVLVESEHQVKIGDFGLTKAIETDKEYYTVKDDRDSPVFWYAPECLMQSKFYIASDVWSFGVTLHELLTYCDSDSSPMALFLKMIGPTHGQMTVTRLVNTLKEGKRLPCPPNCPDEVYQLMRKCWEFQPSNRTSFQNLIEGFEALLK
Description: as §1

VRK2 = VRK2 (Homo sapiens, UniProt Q86Y07)
Description: as §1

BIKE = biological target: T4, BIKE (Homo sapiens, UniProt Q9NSY1)
T4 construct: gene BMP2K
Description: as §1

ABL2 = ABL2 (Homo sapiens, UniProt P42684)
Description: as §1

[2] = biological target: T5, RSK4(Kin.Dom.1-N-terminal) (Homo sapiens, UniProt Q9UK32)
T5 construct: gene RPS6KA6; Kin.Dom.1-N-terminal
Description: as §1

NEK10 = NEK10 (Homo sapiens, UniProt Q6ZWH5)
Description: as §1

[3] = biological target: T6, RSK3(Kin.Dom.2-C-terminal) (Homo sapiens, UniProt Q15349)
T6 construct: gene RPS6KA2; Kin.Dom.2-C-terminal
T6 sequence (Q15349 whole entry): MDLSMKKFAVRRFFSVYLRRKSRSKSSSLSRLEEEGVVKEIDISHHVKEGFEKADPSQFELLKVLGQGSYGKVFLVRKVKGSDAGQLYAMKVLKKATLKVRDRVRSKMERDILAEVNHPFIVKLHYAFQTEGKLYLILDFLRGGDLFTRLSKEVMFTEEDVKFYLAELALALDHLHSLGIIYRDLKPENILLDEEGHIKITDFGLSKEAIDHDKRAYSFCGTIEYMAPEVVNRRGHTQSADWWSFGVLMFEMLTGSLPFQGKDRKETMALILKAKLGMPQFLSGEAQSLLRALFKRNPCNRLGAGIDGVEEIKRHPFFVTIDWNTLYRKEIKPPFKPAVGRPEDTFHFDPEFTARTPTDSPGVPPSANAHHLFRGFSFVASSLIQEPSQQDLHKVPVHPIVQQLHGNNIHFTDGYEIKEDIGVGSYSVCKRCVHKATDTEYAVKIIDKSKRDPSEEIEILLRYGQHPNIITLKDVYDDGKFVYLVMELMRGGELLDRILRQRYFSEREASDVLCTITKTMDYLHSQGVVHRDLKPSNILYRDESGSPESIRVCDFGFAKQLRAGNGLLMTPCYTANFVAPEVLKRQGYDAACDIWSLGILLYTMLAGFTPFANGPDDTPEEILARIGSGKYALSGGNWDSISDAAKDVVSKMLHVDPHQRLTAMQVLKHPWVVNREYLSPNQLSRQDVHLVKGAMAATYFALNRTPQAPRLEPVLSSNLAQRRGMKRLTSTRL
Description: as §1

KIT-autoinhibited = KIT-autoinhibited (Homo sapiens, UniProt P10721)
Description: as §1

TSSK3 = TSSK3 (Homo sapiens, UniProt Q96PN8)
TSSK3, sequence (Q96PN8 whole entry): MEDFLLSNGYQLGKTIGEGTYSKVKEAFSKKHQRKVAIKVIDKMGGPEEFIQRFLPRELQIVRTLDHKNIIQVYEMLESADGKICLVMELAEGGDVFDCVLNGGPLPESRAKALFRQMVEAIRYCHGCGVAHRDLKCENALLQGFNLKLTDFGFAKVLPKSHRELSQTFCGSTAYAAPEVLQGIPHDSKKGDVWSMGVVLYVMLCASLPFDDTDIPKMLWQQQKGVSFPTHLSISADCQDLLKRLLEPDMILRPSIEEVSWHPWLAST
Description: as §1

IKK-alpha = biological target: T7, IKK-alpha (Homo sapiens, UniProt O15111)
T7 construct: gene CHUK
Description: as §1

PIK3CA(H1047L) = PIK3CA(H1047L) (Homo sapiens, UniProt P42336, H1047L)
PIK3CA(H1047L), sequence (P42336 whole entry H1047L): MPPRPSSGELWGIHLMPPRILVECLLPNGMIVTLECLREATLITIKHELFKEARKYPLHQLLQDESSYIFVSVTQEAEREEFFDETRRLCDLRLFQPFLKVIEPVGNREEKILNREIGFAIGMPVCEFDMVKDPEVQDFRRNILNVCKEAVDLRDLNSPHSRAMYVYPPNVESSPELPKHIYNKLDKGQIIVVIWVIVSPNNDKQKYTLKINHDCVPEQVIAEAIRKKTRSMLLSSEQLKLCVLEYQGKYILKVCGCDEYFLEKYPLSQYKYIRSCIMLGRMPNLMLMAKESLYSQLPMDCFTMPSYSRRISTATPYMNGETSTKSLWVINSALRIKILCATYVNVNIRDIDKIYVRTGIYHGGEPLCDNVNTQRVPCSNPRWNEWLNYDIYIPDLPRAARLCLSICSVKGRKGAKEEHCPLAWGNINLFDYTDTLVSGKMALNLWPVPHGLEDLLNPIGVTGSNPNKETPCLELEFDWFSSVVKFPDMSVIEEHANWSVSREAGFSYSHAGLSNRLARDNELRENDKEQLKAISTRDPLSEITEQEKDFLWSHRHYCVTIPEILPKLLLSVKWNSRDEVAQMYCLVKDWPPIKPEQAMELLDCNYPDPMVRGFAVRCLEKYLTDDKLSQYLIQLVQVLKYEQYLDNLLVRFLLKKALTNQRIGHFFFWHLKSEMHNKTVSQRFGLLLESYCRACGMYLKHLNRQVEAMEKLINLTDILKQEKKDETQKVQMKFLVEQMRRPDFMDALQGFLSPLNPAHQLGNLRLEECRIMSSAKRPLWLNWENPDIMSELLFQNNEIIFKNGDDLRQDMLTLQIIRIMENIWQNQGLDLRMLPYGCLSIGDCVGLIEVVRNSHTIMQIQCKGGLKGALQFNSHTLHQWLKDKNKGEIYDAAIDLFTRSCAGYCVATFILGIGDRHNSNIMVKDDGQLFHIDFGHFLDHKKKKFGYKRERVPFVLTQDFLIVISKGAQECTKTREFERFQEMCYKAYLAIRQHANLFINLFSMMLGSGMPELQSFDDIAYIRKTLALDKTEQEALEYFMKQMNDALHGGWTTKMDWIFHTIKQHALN
Description: as §1

GRK4 = GRK4 (Homo sapiens, UniProt P32298)
GRK4, sequence (P32298 whole entry): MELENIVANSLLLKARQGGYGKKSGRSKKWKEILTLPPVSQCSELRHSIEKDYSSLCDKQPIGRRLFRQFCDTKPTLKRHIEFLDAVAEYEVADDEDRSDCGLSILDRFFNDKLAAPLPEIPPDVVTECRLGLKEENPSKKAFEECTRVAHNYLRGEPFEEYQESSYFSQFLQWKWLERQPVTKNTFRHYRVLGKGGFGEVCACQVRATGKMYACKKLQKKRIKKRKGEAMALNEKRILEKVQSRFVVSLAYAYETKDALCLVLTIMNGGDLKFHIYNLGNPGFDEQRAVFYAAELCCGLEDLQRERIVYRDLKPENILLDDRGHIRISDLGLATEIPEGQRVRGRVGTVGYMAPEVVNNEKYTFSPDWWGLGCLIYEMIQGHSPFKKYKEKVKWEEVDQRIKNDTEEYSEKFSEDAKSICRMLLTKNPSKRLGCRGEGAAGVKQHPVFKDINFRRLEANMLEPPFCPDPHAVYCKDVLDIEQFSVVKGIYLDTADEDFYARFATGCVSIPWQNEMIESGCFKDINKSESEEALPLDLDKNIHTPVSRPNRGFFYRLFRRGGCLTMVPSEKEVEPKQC
Description: as §1

CAMK2A = CAMK2A (Homo sapiens, UniProt Q9UQM7)
Description: as §1

CSNK1G2 = CSNK1G2 (Homo sapiens, UniProt P78368)
Description: as §1

GAK = GAK (Homo sapiens, UniProt O14976)
Description: as §1

WEE2 = WEE2 (Homo sapiens, UniProt P0C1S8)
WEE2, sequence (P0C1S8 whole entry): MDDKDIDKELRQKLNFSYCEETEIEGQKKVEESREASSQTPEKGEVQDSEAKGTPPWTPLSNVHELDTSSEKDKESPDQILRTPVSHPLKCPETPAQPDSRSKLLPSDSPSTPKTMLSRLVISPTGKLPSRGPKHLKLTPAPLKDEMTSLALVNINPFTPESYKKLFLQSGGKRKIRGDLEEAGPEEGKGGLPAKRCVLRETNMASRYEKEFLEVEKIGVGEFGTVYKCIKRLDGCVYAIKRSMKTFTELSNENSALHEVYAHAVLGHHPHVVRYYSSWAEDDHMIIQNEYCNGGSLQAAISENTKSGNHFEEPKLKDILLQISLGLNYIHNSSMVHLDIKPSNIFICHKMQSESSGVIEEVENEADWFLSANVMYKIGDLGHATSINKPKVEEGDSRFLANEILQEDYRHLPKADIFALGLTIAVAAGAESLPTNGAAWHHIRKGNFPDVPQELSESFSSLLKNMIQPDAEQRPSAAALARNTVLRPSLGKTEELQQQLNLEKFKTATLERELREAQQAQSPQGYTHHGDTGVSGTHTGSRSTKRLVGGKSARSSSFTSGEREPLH
Description: as §1

GRK3 = GRK3 (Homo sapiens, UniProt P35626)
Description: as §1

Question: What does the source list for `Cn1c(=O)[nH]c2ccc(-c3cccc(C(=O)NC4CCn5ccnc5C4)c3)cc21` (stereo not drawn) [Z36-MP5]?
Answer: remaining binding at 1 µM (CSNK1G1): 63%; remaining binding at 1 µM (RET(V804M)): 36%; remaining binding at 1 µM (GRK2): 83%; remaining binding at 1 µM (FLT3(K663Q)): 98%; remaining binding at 1 µM (ABL1-nonphosphorylated): 91%; remaining binding at 1 µM (MEK3): 66%; remaining binding at 1 µM (RIOK3): 100%; remaining binding at 1 µM [1]: 51%; remaining binding at 1 µM (VRK2): 72%; remaining binding at 1 µM (BIKE): 100%; remaining binding at 1 µM (ABL2): 98%; remaining binding at 1 µM [2]: 36%; remaining binding at 1 µM (NEK10): 50%; remaining binding at 1 µM [3]: 81%; remaining binding at 1 µM (KIT-autoinhibited): 57%; remaining binding at 1 µM (TSSK3): 42%; remaining binding at 1 µM (IKK-alpha): 80%; remaining binding at 1 µM (PIK3CA(H1047L)): 90%; remaining binding at 1 µM (GRK4): 52%; remaining binding at 1 µM (CAMK2A): 87%; remaining binding at 1 µM (CSNK1G2): 86%; remaining binding at 1 µM (GAK): 71%; remaining binding at 1 µM (WEE2): 96%; remaining binding at 1 µM (GRK3): 53%
